Laboratory results published in ChEMBL document CHEMBL2396625 (Bioorg Med Chem Lett, 2013).
Calls of active or inactive are those of the source. The rule behind the calls is not given here.

What was measured:
Homo sapiens = organism: Homo sapiens; experiment: Inhibition of PP2A (unknown origin) using DiFMUP as substrate at 5 uM relative to control
[1] = biological target: T1, Low molecular weight phosphotyrosine protein phosphatase (Homo sapiens) (UniProt P24666); experiment: Inhibition of LMPTPA (unknown origin) using DiFMUP as substrate at 5 uM relative to control
T1 sequence (whole entry): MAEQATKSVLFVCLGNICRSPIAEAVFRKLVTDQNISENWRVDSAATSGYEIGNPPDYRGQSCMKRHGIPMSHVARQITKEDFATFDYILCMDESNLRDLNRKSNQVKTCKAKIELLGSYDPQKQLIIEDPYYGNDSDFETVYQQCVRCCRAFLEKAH

[2] = biological target: T2, Dual specificity protein phosphatase 10 (Homo sapiens) (UniProt Q9Y6W6); experiment: Inhibition of MKP5 (unknown origin) using DiFMUP as substrate at 5 uM relative to control
T2 sequence (whole entry): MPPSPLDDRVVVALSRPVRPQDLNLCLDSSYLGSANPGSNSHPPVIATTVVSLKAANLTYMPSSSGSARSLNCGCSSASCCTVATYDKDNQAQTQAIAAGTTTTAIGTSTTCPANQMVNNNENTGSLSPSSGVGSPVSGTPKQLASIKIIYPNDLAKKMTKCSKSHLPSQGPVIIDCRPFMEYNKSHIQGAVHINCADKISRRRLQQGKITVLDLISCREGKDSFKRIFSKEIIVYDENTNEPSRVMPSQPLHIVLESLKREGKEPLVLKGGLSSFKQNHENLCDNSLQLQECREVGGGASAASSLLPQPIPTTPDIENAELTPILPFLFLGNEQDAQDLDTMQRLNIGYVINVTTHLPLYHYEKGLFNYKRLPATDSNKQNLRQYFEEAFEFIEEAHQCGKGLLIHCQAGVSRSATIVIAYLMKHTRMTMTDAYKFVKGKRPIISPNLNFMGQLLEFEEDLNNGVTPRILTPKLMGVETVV

[3] = biological target: T3, Receptor-type tyrosine-protein phosphatase C (Homo sapiens) (UniProt P08575); experiment: Inhibition of CD45 (unknown origin) using DiFMUP as substrate at 5 uM relative to control
T3 sequence (whole entry): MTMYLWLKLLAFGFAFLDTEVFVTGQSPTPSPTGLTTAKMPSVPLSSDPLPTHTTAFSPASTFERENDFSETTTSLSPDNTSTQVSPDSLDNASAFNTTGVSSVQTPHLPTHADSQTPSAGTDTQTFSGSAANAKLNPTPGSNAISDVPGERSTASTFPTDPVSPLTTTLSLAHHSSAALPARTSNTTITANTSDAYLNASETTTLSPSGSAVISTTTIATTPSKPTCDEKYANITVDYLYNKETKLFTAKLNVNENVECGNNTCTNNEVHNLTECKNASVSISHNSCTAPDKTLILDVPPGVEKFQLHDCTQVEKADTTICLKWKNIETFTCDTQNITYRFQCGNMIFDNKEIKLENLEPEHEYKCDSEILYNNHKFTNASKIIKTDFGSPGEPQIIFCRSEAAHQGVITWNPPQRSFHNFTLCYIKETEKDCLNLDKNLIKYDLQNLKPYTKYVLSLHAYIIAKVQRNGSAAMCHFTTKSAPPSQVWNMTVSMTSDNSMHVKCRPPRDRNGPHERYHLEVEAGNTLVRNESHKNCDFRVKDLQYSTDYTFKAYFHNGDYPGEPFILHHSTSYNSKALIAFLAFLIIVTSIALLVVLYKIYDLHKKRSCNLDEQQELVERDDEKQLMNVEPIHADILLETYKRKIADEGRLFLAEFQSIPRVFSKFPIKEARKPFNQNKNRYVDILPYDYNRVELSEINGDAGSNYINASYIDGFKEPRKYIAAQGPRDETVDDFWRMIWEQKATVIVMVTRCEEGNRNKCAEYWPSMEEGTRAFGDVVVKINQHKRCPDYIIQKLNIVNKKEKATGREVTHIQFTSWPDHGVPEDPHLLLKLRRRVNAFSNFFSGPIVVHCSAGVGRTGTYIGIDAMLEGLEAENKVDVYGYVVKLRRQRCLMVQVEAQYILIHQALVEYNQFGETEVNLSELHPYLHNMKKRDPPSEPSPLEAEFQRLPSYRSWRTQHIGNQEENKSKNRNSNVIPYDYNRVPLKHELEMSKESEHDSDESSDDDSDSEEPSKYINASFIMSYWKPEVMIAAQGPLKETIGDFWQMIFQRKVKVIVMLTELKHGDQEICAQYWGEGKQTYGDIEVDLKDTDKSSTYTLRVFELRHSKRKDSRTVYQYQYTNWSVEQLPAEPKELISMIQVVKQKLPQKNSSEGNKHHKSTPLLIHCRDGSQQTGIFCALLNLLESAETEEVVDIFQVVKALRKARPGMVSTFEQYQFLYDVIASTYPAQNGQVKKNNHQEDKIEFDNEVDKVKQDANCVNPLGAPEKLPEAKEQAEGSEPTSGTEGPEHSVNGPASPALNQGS

ASPC1 = experiment: Antimigratory activity against human AsPC1 cells overexpressing PRL3 at 10 to 20 uM after 20 hrs by crystal violet staining-based light microscopic analysis; assay type: functional, cell-based
MIA PaCa-2 = experiment: Antimigratory activity against human MIAPaCa2 cells overexpressing PRL3 at 10 to 20 uM after 20 hrs by crystal violet staining-based light microscopic analysis; assay type: functional, cell-based
A375P = experiment: Antimigratory activity against human A375P cells overexpressing PRL3 at 10 to 20 uM after 20 hrs by crystal violet staining-based light microscopic analysis; assay type: functional, cell-based
DLD-1 [4] = experiment: Cytotoxicity against human DLD1 cells overexpressing PRL3 assessed as growth inhibition at 50 uM after 24 hrs by WST-1 assay; assay type: cell-based; conditions: dld-1, 24 h
[5] = Cytotoxicity against human DLD1 cells overexpressing PRL3 assessed as cell viability at 10 ug/ml after 24 hrs by WST-1 assay relative to control; assay type: cell-based; conditions: DLD-1 cells overexpressing PRL3, read-out: Activity
DLD-1 [6] = experiment: Antiinvasive activity against human DLD1 cells overexpressing PRL3 at 20 uM after 20 hrs by crystal violet staining-based light microscopic analysis relative to control; assay type: functional; conditions: DLD-1, 20 h
[7] = biological target: Tyrosine-protein phosphatase YopH (Yersinia enterocolitica) (UniProt P15273); experiment: Inhibition of yopH (unknown origin) using DiFMUP as substrate at 5 uM relative to control

SMILES | inhibition (Homo sapiens) [%] | inhibition [1] [%] | inhibition [2] [%] | inhibition [3] [%] | Activity (ASPC1) | Activity (MIA PaCa-2) | Activity (A375P) | Activity (DLD-1 [4]) | viability at 24 h, 10 ug/ml [5] [%] | inhibition at 20 µM (DLD-1 [6]) [%] | inhibition [7] [%]
COc1ccccc1COc1ccccc1/C=C/C=C1\SC(=S)NC1=O | 29 | 6 | 1 | 11 | Active | Active | Active | Non-toxic | 99.5 | > 60 | 9
O=C1NC(=S)S/C1=C\c1cc(Br)ccc1OCc1ccccc1Br | 0 | 0 | 5 | 12 | Active | Active | Active | Non-toxic | 98.1 | > 60 | 14
